Measured values reported in ChEMBL document CHEMBL4196089, “Design, synthesis, biological evaluation and in vivo testing of dual phosphodiesterase 5 (PDE5) and histone deacetylase 6 (HDAC6)-selective inhibitors for the treatment of Alzheimer's disease” (Eur J Med Chem, 2018).

What was measured:
Histone deacetylase 1 = Histone deacetylase 1 (Homo sapiens, UniProt Q13547); experiment: Inhibition of full length human recombinant C-terminal FLAG/His-tagged HDAC1 expressed in baculovirus infected sf9 cells using fluorogenic HDAC substrate 3 after 30 mins by fluorescence assay
Histone deacetylase 2 = Histone deacetylase 2 (Homo sapiens, UniProt Q92769); experiment: Inhibition of full length human recombinant C-terminal His-tagged HDAC2 expressed in baculovirus infected sf9 cells using fluorogenic HDAC substrate 3 after 30 mins by fluorescence assay
[1] = molecular target: T1, Protein deacetylase HDAC6 (Homo sapiens, UniProt Q9UBN7); experiment: Inhibition of full length human recombinant N-terminal GST-tagged HDAC6 expressed in baculovirus infected sf9 cells using fluorogenic HDAC substrate 3 after 30 mins by fluorescence assay
T1 sequence (Q9UBN7 whole entry): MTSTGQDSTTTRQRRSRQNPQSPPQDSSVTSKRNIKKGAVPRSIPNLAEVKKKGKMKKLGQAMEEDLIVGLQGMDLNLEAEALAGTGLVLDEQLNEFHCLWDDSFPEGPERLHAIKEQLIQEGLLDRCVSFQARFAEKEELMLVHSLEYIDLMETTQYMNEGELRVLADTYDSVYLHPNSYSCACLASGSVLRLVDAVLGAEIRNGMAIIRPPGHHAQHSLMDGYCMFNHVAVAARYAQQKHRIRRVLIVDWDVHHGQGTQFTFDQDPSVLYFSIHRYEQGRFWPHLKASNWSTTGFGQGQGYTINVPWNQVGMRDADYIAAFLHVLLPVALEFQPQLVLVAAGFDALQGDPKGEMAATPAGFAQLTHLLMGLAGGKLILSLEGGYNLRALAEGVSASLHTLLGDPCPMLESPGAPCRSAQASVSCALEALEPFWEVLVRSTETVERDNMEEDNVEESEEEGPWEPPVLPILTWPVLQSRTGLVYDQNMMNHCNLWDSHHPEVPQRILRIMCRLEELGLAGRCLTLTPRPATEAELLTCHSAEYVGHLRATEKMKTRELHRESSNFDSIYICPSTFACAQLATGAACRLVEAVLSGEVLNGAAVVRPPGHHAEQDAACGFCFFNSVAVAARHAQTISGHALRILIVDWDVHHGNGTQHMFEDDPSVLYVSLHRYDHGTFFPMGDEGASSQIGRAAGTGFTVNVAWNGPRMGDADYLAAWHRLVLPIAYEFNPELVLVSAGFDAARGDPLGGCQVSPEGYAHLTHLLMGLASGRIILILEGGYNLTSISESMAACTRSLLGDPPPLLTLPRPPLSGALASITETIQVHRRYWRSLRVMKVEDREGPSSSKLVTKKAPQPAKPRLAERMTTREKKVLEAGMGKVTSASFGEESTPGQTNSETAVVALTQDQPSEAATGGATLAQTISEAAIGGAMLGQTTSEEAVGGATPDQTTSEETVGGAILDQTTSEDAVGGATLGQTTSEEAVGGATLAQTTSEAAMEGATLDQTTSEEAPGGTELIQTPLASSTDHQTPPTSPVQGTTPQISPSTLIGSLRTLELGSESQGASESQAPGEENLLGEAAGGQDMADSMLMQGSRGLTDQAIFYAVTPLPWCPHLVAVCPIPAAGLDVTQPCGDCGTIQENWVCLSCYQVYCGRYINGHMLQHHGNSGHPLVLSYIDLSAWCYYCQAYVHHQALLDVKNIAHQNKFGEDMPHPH

[2] = molecular target: cGMP-specific 3',5'-cyclic phosphodiesterase (Homo sapiens, UniProt O76074); experiment: Inhibition of full length human recombinant N-terminal GST-tagged PDE5A1 expressed in baculovirus infected sf9 cells using cGMP as substrate after 30 mins by fluorescence assay
[3] = Cytotoxicity against human THLE2 cells after 72 hrs by vialight cell proliferation assay; assay type: cell-based, THLE-2; details: read-out: LC50
[4] = Effective permeability of the compound at 10 uM after 18 hrs by LC-MS/MS based PAMPA; assay type: ADME; details: read-out: Peff
cells [5] = details: Homo sapiens, SH-SY5Y, 2 h, read-out: FC
cells [6] = details: Homo sapiens, SH-SY5Y, 2 h, read-out: FC; remark: listed apart in the source
cells [7] = details: Homo sapiens, SH-SY5Y, 2 h, read-out: FC; remark: listed apart in the source

Histone deacetylase 2, sequence (Q92769 whole entry): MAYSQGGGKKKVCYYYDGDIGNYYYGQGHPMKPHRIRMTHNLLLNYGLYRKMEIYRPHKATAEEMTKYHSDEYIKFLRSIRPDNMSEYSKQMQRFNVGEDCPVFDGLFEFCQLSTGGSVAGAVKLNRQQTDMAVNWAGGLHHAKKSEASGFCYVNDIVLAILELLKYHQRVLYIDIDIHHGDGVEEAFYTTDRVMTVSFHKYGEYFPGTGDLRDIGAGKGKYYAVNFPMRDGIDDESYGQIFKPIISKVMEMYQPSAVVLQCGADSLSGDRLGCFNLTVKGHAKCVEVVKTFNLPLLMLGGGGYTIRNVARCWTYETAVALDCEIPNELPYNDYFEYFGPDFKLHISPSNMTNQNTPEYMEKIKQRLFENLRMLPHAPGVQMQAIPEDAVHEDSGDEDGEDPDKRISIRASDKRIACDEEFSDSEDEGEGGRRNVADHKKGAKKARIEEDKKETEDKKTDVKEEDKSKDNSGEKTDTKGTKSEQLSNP
Histone deacetylase 1, sequence (Q13547 whole entry): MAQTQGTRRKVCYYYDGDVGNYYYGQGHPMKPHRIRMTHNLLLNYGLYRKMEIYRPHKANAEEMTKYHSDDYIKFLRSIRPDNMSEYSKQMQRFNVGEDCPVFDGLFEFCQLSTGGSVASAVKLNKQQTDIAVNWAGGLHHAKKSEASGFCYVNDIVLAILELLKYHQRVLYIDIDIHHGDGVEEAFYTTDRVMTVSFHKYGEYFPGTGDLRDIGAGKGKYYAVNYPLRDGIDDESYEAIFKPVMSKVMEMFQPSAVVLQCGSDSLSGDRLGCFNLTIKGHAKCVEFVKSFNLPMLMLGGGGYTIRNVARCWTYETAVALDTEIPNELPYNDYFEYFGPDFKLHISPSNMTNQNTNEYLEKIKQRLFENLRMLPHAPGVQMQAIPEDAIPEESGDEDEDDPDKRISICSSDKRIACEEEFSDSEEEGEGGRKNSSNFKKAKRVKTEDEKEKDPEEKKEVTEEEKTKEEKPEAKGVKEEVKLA

## CCCc1nc(C)c2c(=O)[nH]c(-c3cc(-c4ccc(C(=O)NO)cc4)ccc3OCC)nn12
Histone deacetylase 1
  IC50: 4100 nM
Histone deacetylase 2
  IC50: > 20000 nM
[1]
  IC50: 326 nM
[2]
  IC50: 2 nM
[3]
  CC50 at 72 h: > 100000 nM
[4]
  Papp at 18 h, 10 µM: 2.7 ×10⁻⁶ cm/s
Cells [5]
  fold induction at 0.1 µM: 1.3
Cells [6]
  fold induction at 0.5 µM: 2.3
Cells [7]
  fold induction at 1 µM: 2.8
